Laboratory results from PMC8224775, “Five Tetramic Acid Derivatives Isolated from the Iranian Fungus Colpoma quercinum CCTU A372” (Biomolecules, 2021).
Like-named read-outs stand apart in the source and are kept apart here.

Tested on: mouse fibroblast L-929
Experiment: 5-day MTT cytotoxicity assay
Assay type: cell-based
Conditions: L-929, 5-day MTT assay
Procedure: Cytotoxicity of compounds 1‒5 was initially determined against two cancer cell lines (mouse fibroblasts L-929 and human endocervical adenocarcinoma KB-3.1) by using a 5-day MTT assay according to an established procedure.
In 96-well flat-bottom microtiter plates, cell lines with serial dilution of the test compounds (final range: 37 to 0.6 × 10^−3 µg/mL) were incubated for five days. After five days, the cells were dyed using 3-(4,5-dimethyl-2-thiazolyl)-2,5-diphenyl-2H-tetrazolium bromide (MTT), which is only converted to its purple formazan derivative by living cells. The half-maximum inhibitory concentration (IC50 in µM) was calculated via the colorimetric method in a microplate reader using absorption at 595 nm. In addition, when an inhibition with an IC50 < 50 µM was observed, other cell lines were subjected to the test compounds to evaluate their further cytotoxicity: PC-3 (human prostate adenocarcinoma), SK-OV-3 (human ovary adenocarcinoma), MCF-7 (human breast adenocarcinoma), A-431 (human squamous carcinoma), and A549 (human lung carcinoma). A detailed procedure, including the colorimetric method to determine the cell viability, can be found in the SI.
Protocol: Cytotoxicity Assay
The assay was co nducted in 9 6-well flat -botto m microtiter plates using the parameters summarised in T able S2 and as described in [S2]. Cell l ines L-929 and KB-3.1 were incubated at 37 °C under 10 % CO2 in Gibco™ DMEM medium (T her mo Fisher Scientific, Waltham, M A, USA) supplemented with 10 % FBS. A microtiter plate was filled wit h 120 μ L o f this suspensio n (50,000/mL) in each well. Seperatel y, a nother microti ter plate wa s filled wit h 100 μL of gro wth medium in each well. Then, 50 μ L of the test compound solutions (1 mg/mL) were given to wells of the first column in two replicates (one compound per row). Cells without additives and MeOH were used as nega tive controls. Starting from the first column, 50 μ L of the solutions were gradually transferred to the next column, the contents thoroughly mixed, and 50 μL transferred to the following column. This created a serial dilution of the test compounds ranging from 333 μ g/mL to 1.9×10-3 μg/ mL. T he re mai ni ng 50 μ L after column twelve were discarded. From this microtiter plate, 60 μ L of the solutions fro m 111 μ g/mL to 1.9×10-3 μg/mL we r e give n to t he firs t p late co ntai ni ng 1 2 0 μ L of the cell suspensions (i.e. the highest co ncentration 333 μ g/ mL wa s no t used). T his resul ted in fi nal compo und concentratio ns rangi ng fro m 37 μ g/mL to 0.6×10-3 μg/ mL. After 5 days o f incubatio n under the aforementioned incubatio n conditions, the half maximu m inhibitory co ncentrations (IC50) were deter mined using a colorimetric tetrazolium d ye MT T assa y [S3]. For this, 20 μ L of a 5 mg/mL solution of 3-(4,5-dimethyl-2 -thiazolyl) -2,5-diphenyl-2H-tetrazolium br omide (MTT) were added to each well and incubated for two hours at 37 °C. T hen, the microtiter plate was ce ntrifuged (3,000 rpm, 5 min) and the supernatant removed by holding the plate upside-down and gentle shaking. Afterwards, the wells were washed using 100 μ L of phosphate buffered saline (PBS). T he plate was a gain ce ntrifuged a nd the supernata nt re mo ved as described before.
T hen, 1 0 0 μ L of an isopropanol:HCl solution (1L isopropanol+4 mL HCl 37 % w/v) were added to the wells. After incubating for 10 min at ambient temperature, the absorption of the wells at 595 nm was measured with an Infinite® 200 Pro microplate reader (TECAN, Männedorf, Schweiz). The absorption values of the cells without additives were averaged and set to 100 % cell viability. Then, the means of absorption of the two compound replicates were set in relation to the blank media. T hese percentage values were plotted against the concentratio n range (37 μ g/mL to 0.6×10−3 μg/ mL). T he IC50 value was r ead fro m the plot (in μ g/ mL) a nd the uni ts conversed […]
to μM. […]

SMILES | IC50 | IC50 (Mus musculus, L929, 120 h, read-out: IC50)
CC(=O)OC(C(=O)O)C(C)C1C(C)=CC2CC(C)CCC2C1(C)C(O)=C1C(=O)C(C)N(C)C1=O (centres unmarked) [compound 1, Colposetin A] | not active | 
CCC(C(=O)O)C1C(C)=CC2CC(C)CCC2C1(C)C(O)=C1C(=O)C(C)N(C)C1=O (centres unmarked) [compound 2, Colposetin B] |  | 57.5 µM
CC1=CC2CC(C)CCC2C2(C)C(=O)OC(C(=O)O)C(C)C12 (centres unmarked) [compound 3, Colposetin C] | not active | 
CC(C=CCC(C)CCC=C(C)C(=O)C1=C(O)C(C)N(C)C1=O)=CC(C)C(O)C(=O)O (centres unmarked) [compound 4, Colpomenoic acid A] | not active | 
CC(C=CCC(C)C=CC=C(C)C(=O)C1=C(O)C(C)N(C)C1=O)=CC(C)C(O)C(=O)O (centres unmarked) [compound 5, Colpomenoic acid B] | not active | 
